Test results reported in patent US8664391B2, “Amide compounds as boosters of antivirals” (Janssen R&D Ireland Ltd, priority 2008, dated 2014).
Read-outs that look alike come from different tables or passages of the source.

Assays:
in vitro = in vitro ADME, human; settings: pH 7.4
Description: Assay 3: Metabolic Stability of Test Compounds (HLM15′)
Sub-cellular tissue preparations are made according to Gorrod et al. (Xenobiotica, 5, pp. 453-462 (1975)) by centrifugal separation after mechanical homogenization of tissue. Human liver tissue is rinsed in ice-cold 0.1 M Tris-HCl (pH 7.4) buffer to wash excess blood. Tissue is then blotted dry, weighed and chopped coarsely using surgical scissors. The tissue pieces are homogenized in 3 volumes of ice-cold 0.1 M phosphate buffer (pH 7.4) using either a Potter-S (Braun, Italy) equipped with a Teflon pestle or a Sorvall Omni-Mix homogenizer, for 7×10 sec. In both cases, the vessel is kept in/on ice during the homogenization process. Tissue homogenates are centrifuged at 9000×g for 20 min at 4° C. using a Sorvall centrifuge or Beckman Ultracentrifuge. The resulting supernatant can be stored at −80° C. and is designated ‘S9’. The S9 fraction is centrifuged at 100,000×g for 60 min at 4° C. using a Beckman ultracentrifuge. The resulting supernatant is carefully aspirated, aliquoted and designated ‘cytosol’. The pellet is re-suspended in 0.1 M phosphate buffer (pH 7.4) in a final volume of 1 ml per 0.5 g original tissue weight and designated ‘microsomes’. All sub-cellular fractions are aliquoted, immediately frozen in liquid nitrogen and stored at −80° C. until use.
Heat-inactivated (10 min at 95° C.) ‘S9’ or microsomes were used for blank experiments. Reaction mixtures were incubated at 37° C. for 5 min, after which the reaction was started by the addition of 0.8 mM β-NADP. The reaction was incubated for 0 or 15 min. Next, the reaction was stopped by addition of 2 volumes of DMSO (or acetonitrile). Samples were centrifuged (10 min, 900×g) and analyzed by LC-MS.

CYP2D6 = biological target: T1, CYP2D6 (Homo sapiens, UniProt P10635); experiment: CYP450 inhibition, fluorescent substrate assay, CYP2D6; type: biochemical; settings: substrate AMMC 3 μM, read-out: 2D6-AMMC % inh.
T1 construct: host or cells: E. coli
Experimental: (§1) Assay 4: CYP450 Inhibition […] This fluorescent molecule was measured using a fluorescent plate reader (Victor2 (Wallac) or Fluoroskan (Labsystems)). Compounds inhibiting the enzymatic reaction will result in a decrease of fluorescent signal. CYP P450 enzymes were prepared in house or commercially bought and stored at −80° C. [table] The assay was performed in black 96 well Costar plates. Test compounds were added to a CYP P450 enzyme solution in the presence of an NADPH generating system. After 5 min of preincubation at 37° C., the freshly prepared, phosphate buffered (pH 7.4) substrate solution was added. Known CYP P450 inhibitors were used as positive controls, negative controls were run without CYP P450 enzyme. For final reaction mixture concentrations, see Table 6. […] Then, the reaction was stopped by the addition of 200 μl acetonitrile, and the fluorescent signal was detected. [table] […] Inhibition of TMC114 Metabolisation

CYP2C19 = biological target: T2, CYP2C19 (Homo sapiens, UniProt P33261); experiment: CYP450 inhibition, fluorescent substrate assay, CYP2C19; type: biochemical; settings: substrate CEC 25 μM, read-out: 2C19-CEC % inh.
T2 construct: host or cells: E. coli
Experimental: as §1

CYP2C9 = CYP2C9 (Homo sapiens, UniProt P11712); experiment: CYP450 inhibition, fluorescent substrate assay, CYP2C9; type: biochemical
Experimental: as §1

[1] = system: wild-type HIV-1 IIIB strain; experiment: Antiviral activity in MT4 LTR-EGFP cellular assay; type: cell-based; settings: read-out: Antiviral Activity IIIB pEC50 (converted)
Experimental: (§2) Assay 1 &2: Antiviral Activity/Toxicity
The compounds of the present invention were tested for antiviral activity in a cellular assay, which was performed according to the following procedure.
The human T-cell line MT4 is engineered with Green Fluorescent Protein (GFP) and an HIV-specific promoter, HIV-1 long terminal repeat (LTR). This cell line is designated MT4 LTR-EGFP, and can be used for the in vitro evaluation of anti-HIV activity of investigational compounds. In HIV-1 infected cells, the Tat protein is produced which upregulates the LTR promotor and finally leads to stimulation of the GFP reporter production, allowing measuring ongoing HIV-infection fluorometrically.
(§3) The ratio of CC50 to EC50 is defined as the selectivity index (SI) and is an indication of the selectivity of the anti-HIV activity of the inhibitor. The ultimate monitoring of HIV-1 infection and cytotoxicity is done using a scanning microscope. Image analysis allows very sensitive detection of viral infection. Measurements are done before cell necrosis, which usually takes place about five days after infection, in particular measurements are performed three days after infection.
A pEC50 value corresponds to −log10(EC50). A pCC50 value corresponds to −log10(CC50).

[2] = Cytotoxicity in mock-infected MT4 CMV-EGFP cells; type: cell-based; settings: human, pCC50 = -log10(CC50), read-out: Toxicity MT4 pCC50 (converted)
Description: as §2
Analogously, MT4 cells are engineered with GFP and the constitutional cytomegalovirus (CMV) promotor. This cell line is designated MT4 CMV-EGFP, and can be used for the in vitro evaluation of cytotoxicity of investigational compounds. In this cell line, GFP levels are comparably to those of infected MT4 LTR-EGFP cells. Cytotoxic investigational compounds reduce GFP levels of mock-infected MT4 CMV-EGFP cells.
as §3, with “Effective concentration values such as 50% effective concentration (EC50) can be determined and are usually expressed in μM. An EC50 value is defined as the concentration of test compound that reduces the fluorescence of HIV-infected cells by 50%. The 50% cytotoxic concentration (CC50 in μM) is defined as the concentration of test compound that reduces fluorescence of the mock-infected cells by 50%. The ratio” for “The ratio”
Table 2 lists pEC50 values against the wild-type HIV-1 IIIB strain as well as pCC50 values for a selected number of compounds of the invention. A pEC50 value corresponds to −log10(EC50). A pCC50 value corresponds to −log10(CC50).

CYP1A2 = biological target: T3, CYP1A2 (Homo sapiens, UniProt P05177); experiment: CYP450 inhibition, fluorescent substrate assay, CYP1A2; type: biochemical; settings: substrate CEC 5 μM, read-out: 1A2-CEC % inh.
T3 construct: host or cells: E. coli
T3 sequence (P05177 1-516): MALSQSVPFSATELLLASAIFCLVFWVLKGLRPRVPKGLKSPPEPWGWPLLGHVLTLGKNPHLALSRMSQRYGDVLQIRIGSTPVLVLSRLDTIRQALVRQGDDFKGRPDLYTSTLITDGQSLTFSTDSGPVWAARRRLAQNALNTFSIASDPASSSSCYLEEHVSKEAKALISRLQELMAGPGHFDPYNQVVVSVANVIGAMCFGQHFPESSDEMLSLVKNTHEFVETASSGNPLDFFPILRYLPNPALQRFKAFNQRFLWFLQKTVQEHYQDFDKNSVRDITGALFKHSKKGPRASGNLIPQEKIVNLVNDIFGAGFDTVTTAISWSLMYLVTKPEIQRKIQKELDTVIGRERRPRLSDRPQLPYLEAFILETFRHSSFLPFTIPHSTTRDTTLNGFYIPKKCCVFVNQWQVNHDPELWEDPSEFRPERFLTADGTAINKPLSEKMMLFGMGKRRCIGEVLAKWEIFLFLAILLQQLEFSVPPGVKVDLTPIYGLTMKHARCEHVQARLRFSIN
Experimental: as §1

CYP3A4 = biological target: T4, CYP3A4 (Homo sapiens, UniProt P08684); experiment: CYP450 inhibition, fluorescent substrate assay, CYP3A4; type: biochemical; settings: 10 μM test compound; for inhibition at 10 min, 10 μM: E. coli expressed CYP3A4, pH 7.4, probe DBF (1 μM), substrate DBF 1 μM, read-out: 3A4-DBF % inh.
T4 construct: host or cells: E. coli
Experimental: as §1

[3] = E. coli expressed CYP2D6, pH 7.4, probe AMMC (3 μM), 10 μM test compound
[4] = E. coli expressed CYP2C19, pH 7.4, probe CEC (25 μM), 10 μM test compound
[5] = Human immunodeficiency virus 1, 72 h, wild-type HIV-1 IIIB, MT4 LTR-EGFP cells, three days after infection, pEC50 = -log10(EC50)
[6] = E. coli expressed CYP1A2, pH 7.4, probe CEC (5 μM), 10 μM test compound
[7] = E. coli expressed CYP3A4, pH 7.4, probe BFC (150 μM), substrate BFC 150 μM, read-out: 3A4-BFC % inh.
[8] = E. coli expressed CYP3A4, pH 7.4, probe BQ (60 μM), substrate BQ 60 μM, read-out: 3A4-BQ % inh.

T4 sequence (P08684 whole entry): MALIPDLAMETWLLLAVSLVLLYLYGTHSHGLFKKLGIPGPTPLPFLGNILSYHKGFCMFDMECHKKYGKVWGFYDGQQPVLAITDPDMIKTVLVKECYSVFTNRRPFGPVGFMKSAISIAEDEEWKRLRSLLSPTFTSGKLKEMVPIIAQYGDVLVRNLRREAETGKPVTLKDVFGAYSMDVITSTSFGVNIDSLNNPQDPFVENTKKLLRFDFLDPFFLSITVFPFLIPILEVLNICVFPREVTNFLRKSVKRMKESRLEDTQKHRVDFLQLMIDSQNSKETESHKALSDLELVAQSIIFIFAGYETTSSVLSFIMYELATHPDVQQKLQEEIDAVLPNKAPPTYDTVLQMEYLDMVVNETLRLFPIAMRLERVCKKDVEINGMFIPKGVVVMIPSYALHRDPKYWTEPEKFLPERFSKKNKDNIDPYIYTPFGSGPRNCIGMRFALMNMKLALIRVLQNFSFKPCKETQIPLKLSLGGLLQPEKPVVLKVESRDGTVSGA
Sequence of CYP2C9 (P11712 whole entry): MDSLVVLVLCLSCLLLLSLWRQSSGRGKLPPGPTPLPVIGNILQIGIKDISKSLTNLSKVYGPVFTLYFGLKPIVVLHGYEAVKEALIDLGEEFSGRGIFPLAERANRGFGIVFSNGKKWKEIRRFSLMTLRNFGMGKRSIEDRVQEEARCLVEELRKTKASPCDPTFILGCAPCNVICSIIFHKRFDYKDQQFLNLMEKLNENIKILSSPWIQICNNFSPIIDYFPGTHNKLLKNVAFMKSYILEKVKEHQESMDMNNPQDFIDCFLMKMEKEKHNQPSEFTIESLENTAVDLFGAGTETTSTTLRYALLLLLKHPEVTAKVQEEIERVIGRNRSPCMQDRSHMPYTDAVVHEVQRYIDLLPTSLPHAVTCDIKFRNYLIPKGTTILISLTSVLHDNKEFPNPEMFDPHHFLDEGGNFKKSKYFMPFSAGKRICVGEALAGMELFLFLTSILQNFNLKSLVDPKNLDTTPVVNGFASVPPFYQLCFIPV
T2 sequence (P33261 whole entry): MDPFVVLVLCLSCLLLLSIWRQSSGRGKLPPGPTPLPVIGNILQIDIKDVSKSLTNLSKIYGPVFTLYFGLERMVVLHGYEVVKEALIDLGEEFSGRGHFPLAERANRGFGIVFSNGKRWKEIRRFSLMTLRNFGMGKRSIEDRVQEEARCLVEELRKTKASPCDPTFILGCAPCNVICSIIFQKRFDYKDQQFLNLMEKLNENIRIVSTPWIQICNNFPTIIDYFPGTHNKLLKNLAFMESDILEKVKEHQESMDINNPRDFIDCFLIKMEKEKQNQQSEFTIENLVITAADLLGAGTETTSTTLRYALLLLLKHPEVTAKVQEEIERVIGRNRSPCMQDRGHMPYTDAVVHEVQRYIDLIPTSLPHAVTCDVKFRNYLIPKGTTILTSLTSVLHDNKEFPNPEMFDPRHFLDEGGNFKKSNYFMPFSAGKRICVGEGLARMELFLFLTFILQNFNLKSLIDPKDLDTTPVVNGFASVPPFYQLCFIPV
T1 sequence (P10635 whole entry): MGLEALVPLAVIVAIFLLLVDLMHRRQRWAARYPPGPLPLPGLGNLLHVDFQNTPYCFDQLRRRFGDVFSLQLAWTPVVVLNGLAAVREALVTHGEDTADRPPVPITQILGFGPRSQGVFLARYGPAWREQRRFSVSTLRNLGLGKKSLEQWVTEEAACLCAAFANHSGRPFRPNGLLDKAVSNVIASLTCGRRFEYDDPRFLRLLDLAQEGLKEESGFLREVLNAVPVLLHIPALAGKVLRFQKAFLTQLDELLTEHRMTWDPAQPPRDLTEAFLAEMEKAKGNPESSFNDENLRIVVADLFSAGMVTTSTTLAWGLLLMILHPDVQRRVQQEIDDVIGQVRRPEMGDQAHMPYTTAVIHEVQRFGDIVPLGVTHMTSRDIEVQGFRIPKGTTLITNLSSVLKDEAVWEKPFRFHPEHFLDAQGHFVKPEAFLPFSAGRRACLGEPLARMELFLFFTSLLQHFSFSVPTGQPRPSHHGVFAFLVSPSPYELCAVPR

Structure (SMILES)	recovery at 15 min, 5 μM (in vitro; human liver microsomes 1 mg/ml, 5 μM test compound, 15 min, 37° C., read-out: % recovery HLM15)	inhibition at 45 min, 10 μM (CYP2D6; pH 7.4, 10 μM test compound)	inhibition at 30 min, 10 μM (CYP2C19; pH 7.4, 10 μM test compound)	inhibition at 30 min, 10 μM (CYP2C9; pH 7.4, 10 μM test compound, substrate MFC 200 μM, 30 min, read-out: 2C9-MFC % inh.)	EC50 ([1]; Human immunodeficiency virus 1, IIIB, 72 h)	CC50 at 3 days [2]	inhibition at 15 min, 10 μM (CYP1A2; pH 7.4, 10 μM test compound)	recovery at 15 min, 5 μM (in vitro; human)	inhibition at 45 min, 10 μM (CYP2D6; [3])	inhibition at 30 min, 10 μM (CYP2C19; [4])	EC50 [1, 5]	inhibition at 15 min, 10 μM (CYP1A2; [6])	inhibition at 30 min, 10 μM (CYP3A4; [7])	inhibition at 30 min, 10 μM (CYP3A4; [8])	inhibition at 10 min, 10 μM (CYP3A4)	inhibition at 30 min, 10 μM (CYP2C9; pH 7.4)
CC(C)CN(C[C@@H](O)[C@H](Cc1ccccc1)NC(=O)OCc1cncs1)C(=O)c1ccc2c(c1)OCO2 [Compound C1]	56%	73%	94%	97%	47.9 µM	57.5 µM	36%									
CC(C)CN(C[C@@H](O)[C@H](Cc1ccccc1)NC(=O)OCc1cncs1)C(=O)c1ccc2occc2c1 [Compound C2]						45.7 µM		67%	102%	98%	44.7 µM	40%				
Cc1ccc(C(=O)N(CC(C)C)C[C@@H](O)[C@H](Cc2ccccc2)NC(=O)OCc2cncs2)cc1 [Compound C3]						70.8 µM		54%	49%	90%	52.5 µM	20%	95%	85%	97%	99%
CC(C)CN(C[C@@H](O)[C@H](Cc1ccccc1)NC(=O)OCc1cncs1)C(=O)c1ccc(C(F)(F)F)cc1 [Compound C4]						39.8 µM		57%	79%	92%	31.6 µM	62%	95%	85%	99%	99%
